Source: patent EP0640690A1, “Monoclonal antibodies specific for 5-dihydrotestosterone” (ELI LILLY AND COMPANY, priority 1993, dated 1995)

Experiments:
[1] = tested on: monoclonal antibody MoAb 276-1 (anti-5-dihydrotestosterone, hybridoma ATCC HB 11410); assay: competitive ELISA: competition with bound avidin/5-DHT complex for the antibody; assay type: binding, mouse; settings: for IC50: concentration inhibiting 50% of antibody binding to immobilized avidin/5-DHT, read-out: IC₅₀
Method: The usual method of quantifying specificity of an antibody is by way of a competitive ELISA assay, a technique which is well known to one of skill in the art. In such an assay the reactivity is determined by binding an avidin/5-DHT complex to a support, such as a well in a microtiter plate, as described infra. A limited amount of anti-5-DHT antibody (such as MoAb 276-1) is then added simultaneously with differing concentrations of 5-dihydrotestosterone, which competes with the bound 5-DHT for the antibody. Unbound antibody is then removed from the wells. The concentration of 5-dihydrotestosterone which inhibits 50% of the binding of the antibody is designated as the IC₅₀. The experiment is run in parallel using testosterone in place of the 5-dihydrotestosterone. The IC₅₀ of the testosterone is then compared with the IC₅₀ of the 5-dihydrotestosterone to give a relative binding affinity.
The most preferred antibody of this invention, MoAb 276-1, has an IC₅₀ of 537 nM for 5-dihydrotestosterone, while an IC₅₀ of 4568 nM was obtained for testosterone. This antibody, therefore, is 8.5 times more specific for 5-dihydrotestosterone than for testosterone. The hybridoma producing the monoclonal antibody MoAb 276-1 is available from the American Type Culture […] (ATCC) in Rockville, Maryland, 20852 under accession number ATCC HB 11410.

[2] = tested on: 5-α-reductase enzyme from a female rat liver preparation; assay: 5-α-reductase inhibitor assay: 5-DHT formed from testosterone measured by MoAb 276-1 ELISA; assay type: biochemical; settings: concentration inhibiting 100% of activity; testosterone substrate, NADPH, pH 6.5, 37°C, 20 minutes; one experiment
Method: This reaction mixture was incubated at 37°C for 20 minutes. The enzyme was then inactivated by incubating the reaction mixture at 80°C for 10 minutes. […] In additon, serial dilutions of the reaction mixture were made and 100 µl of each of these dilutions was added to separate wells. To each well was added 100 µl (0.35 µg) of MoAb 276-1. This plate was then incubated at 37°C for 2 hours. After this incubation period, the plate was washed four times with phosphate buffered saline (PBS). After the washing, 200 µl of anti-mouse antibody/alkaline phosphatase conjugate was added to each well. This was then incubated at 37°C for 1 hour. After the incubation each well was washed four times with PBS. To each well was then added 200 µl of p-nitrophenylphosphate. This reaction was then incubated for one hour at 37°C. Spectrophotometric measurement of each well was then performed, reading at 410 nm. This measurement provided the baseline activity of 5-α-reductase activity without an inhibitor. […] This compound was prepared as described in U.S. Patent 5,239,075, issued August 24, 1993, which is herein incorporated by reference.

Compound | IC50 [1] | times more specific for 5-dihydrotestosterone than for testosterone ([1]; ratio of IC₅₀ of testosterone to IC₅₀ of 5-dihydrotestosterone) | IC₁₀₀ [2]
C[C@]12CCC(=O)C[C@@H]1CC[C@@H]1[C@@H]2CC[C@]2(C)[C@@H](O)CC[C@@H]12 [5-dihydrotestosterone, 17β-hydroxy-5α-androstan-3-one] | 537 nM | 8.5 times | 
C[C@]12CC[C@H]3[C@@H](CCC4=CC(=O)CC[C@@]43C)[C@@H]1CC[C@@H]2O [testosterone] | 4570 nM |  | 
Cc1ccc2c(c1)CC[C@@H]1[C@@H]2CCC(=O)N1C (racemic) [trans-dl-4,8-dimethyl-1,2,3,4,4a,5,6,10b-octahydrobenzo-[f]quinolin-3-one] |  |  | 0.3 µM
